THT assay Lag time (Ex. 76) data for 5 compounds are collected here from patent publication US9474790B2, “Stable, protracted GLP-1/glucagon receptor co-agonists for medical use” (Novo Nordisk A/S, priority 2013, dated 2016).

SMILES strings stand for the structures. Numbered stars: 1 amine (or outer) side, 2 acyl side, 3 side chain; on linkers, the order of the positions; unused ones are H or OH. Bridge positions count the residues as written; N and C are the ends. Square brackets hold non-standard residues; d marks the D form. Side chains are listed from the residue outwards. Peptide text beside a SMILES is read from it. I, II: the chains in the order shown. * marks the point of attachment. C18 diacid = O=C(O)CCCCCCCCCCCCCCCCC(=O)*; γGlu = O=C(O)[C@H](CCC(=O)[*:2])N[*:1]; AEEA = NCCOCCOCC(=O)O; Aib = CC(C)(N)C(=O)O

This series can be described thus: Thioflavin T (ThT) fibrillation assay for physical stability. The format is physicochemical. The settings on record: 250 μM in 10 mM HEPES buffer, pH 7.5, 37° C., shaking 960 rpm. The method in brief: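 Fibrillation was followed by ThT (1 μM) fluorescence every 20 min, 444/485 nm, for 250 μM peptide in 10 mM HEPES pH 7.5 shaken at 960 rpm, 37° C. Lag time (t0−2τ) and apparent rate constant (1/τ) come from a sigmoidal fit. Recovery is % of initial concentration remaining soluble after centrifugation and filtration (RP-HPLC).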
Compound `CC(C)C[C@H](NC(=O)[C@H](CC(C)C)NC(=O)[C@H](Cc1c[nH]c2ccccc12)NC(=O)[C@H](CCC(N)=O)NC(=O)[C@@H](NC(=O)[C@H](Cc1ccccc1)NC(=O)[C@H](CCC(=O)O)NC(=O)[C@H](CCCNC(=N)N)NC(=O)[C@H](C)NC(=O)[C@H](CCCNC(=N)N)NC(=O)[C@H](CCCNC(=N)N)NC(=O)[C@H](CO)NC(=O)[C@H](CCC(=O)O)NC(=O)[C@H](CC(C)C)NC(=O)[C@H](Cc1ccc(O)cc1)NC(=O)[C@H](CCCCN)NC(=O)[C@H](CO)NC(=O)[C@H](CC(C)C)NC(=O)[C@H](CC(=O)O)NC(=O)[C@H](CO)NC(=O)[C@@H](NC(=O)[C@H](Cc1ccccc1)NC(=O)[C@@H](NC(=O)CNC(=O)[C@H](CCC(N)=O)NC(=O)C(C)(C)NC(=O)[C@@H](N)Cc1c[nH]cn1)[C@@H](C)O)[C@@H](C)O)C(C)C)C(=O)N[C@@H](CC(N)=O)C(=O)N[C@@H](CCCCNC(=O)CC[C@H](NC(=O)COCCOCCNC(=O)COCCOCCNC(=O)CC[C@H](NC(=O)CC[C@H](NC(=O)CCCCCCCCCCCCCCCCC(=O)O)C(=O)O)C(=O)O)C(=O)O)C(N)=O` [Example 21, N^ε29-[(4S)-4-carboxy-4-[[2-[2-[2-[[2-[2-[2-[[(4S)-4-carboxy-4-[[(4S)-4-carboxy-4-(17-carboxyheptadecanoylamino)butanoyl]amino]butanoyl]amino]ethoxy]ethoxy]acetyl]amino]ethoxy]ethoxy]acetyl]amino]butanoyl]-[Aib2,Leu10,Glu15,Arg20,Glu21,Leu27,Lys29]-Glucagon amide] (H-H[Aib]QGTFTSDLSKYLESRRAREFVQWLLNK([γGlu-AEEA-AEEA-γGlu-γGlu-C18 diacid])-NH2; N-terminus assumed) displayed a THT assay Lag time (Ex. 76) of 18 h.

In turn, `CC(C)C[C@H](NC(=O)[C@H](Cc1ccc(O)cc1)NC(=O)[C@H](CCCCN)NC(=O)[C@H](CO)NC(=O)[C@H](CC(C)C)NC(=O)[C@H](CC(=O)O)NC(=O)[C@H](CO)NC(=O)[C@@H](NC(=O)[C@H](Cc1ccccc1)NC(=O)[C@@H](NC(=O)CNC(=O)[C@H](CCC(N)=O)NC(=O)C(C)(C)NC(=O)[C@@H](N)Cc1c[nH]cn1)[C@@H](C)O)[C@@H](C)O)C(=O)N[C@@H](CCC(=O)O)C(=O)N[C@@H](CO)C(=O)N[C@@H](CCCNC(=N)N)C(=O)N[C@@H](CCCNC(=N)N)C(=O)N[C@@H](C)C(=O)N[C@@H](CCCNC(=N)N)C(=O)N[C@@H](CCC(=O)O)C(=O)N[C@@H](Cc1ccccc1)C(=O)N[C@H](C(=O)N[C@@H](CCC(N)=O)C(=O)N[C@@H](Cc1c[nH]c2ccccc12)C(=O)N[C@@H](CC(C)C)C(=O)N[C@@H](CC(C)C)C(=O)N[C@@H](CCCCNC(=O)CC[C@H](NC(=O)CC[C@H](NC(=O)COCCOCCNC(=O)COCCOCCNC(=O)CC[C@H](NC(=O)CCCCCCCCCCCCCCCCC(=O)O)C(=O)O)C(=O)O)C(=O)O)C(=O)N[C@H](C(N)=O)[C@@H](C)O)C(C)C` [Example 23, N^ε28-[(4S)-4-carboxy-4-[[(4S)-4-carboxy-4-[[2-[2-[2-[[2-[2-[2-[[(4S)-4-carboxy-4-(17-carboxyheptadecanoylamino)butanoyl]amino]ethoxy]ethoxy]acetyl]amino]ethoxy]ethoxy]acetyl]amino]butanoyl]amino]butanoyl]-[Aib2,Leu10,Glu15,Arg20,Glu21,Leu27,Lys28]-Glucagon amide] (H-H[Aib]QGTFTSDLSKYLESRRAREFVQWLLK([γGlu-γGlu-AEEA-AEEA-γGlu-C18 diacid])T-NH2; N-terminus assumed) displayed a THT assay Lag time (Ex. 76) of 45 h. On to `CC(C)C[C@H](NC(=O)[C@H](Cc1ccc(O)cc1)NC(=O)[C@H](CCCCN)NC(=O)[C@H](CO)NC(=O)[C@H](CC(C)C)NC(=O)[C@H](CC(=O)O)NC(=O)[C@H](CO)NC(=O)[C@@H](NC(=O)[C@H](Cc1ccccc1)NC(=O)[C@@H](NC(=O)CNC(=O)[C@H](CCC(N)=O)NC(=O)C(C)(C)NC(=O)[C@@H](N)Cc1c[nH]cn1)[C@@H](C)O)[C@@H](C)O)C(=O)N[C@@H](CCC(=O)O)C(=O)N[C@@H](CO)C(=O)N[C@@H](CCCCN)C(=O)N[C@@H](CCCNC(=N)N)C(=O)N[C@@H](C)C(=O)N[C@@H](CCCNC(=N)N)C(=O)N[C@@H](CCC(=O)O)C(=O)N[C@@H](Cc1ccccc1)C(=O)N[C@H](C(=O)N[C@@H](CCC(N)=O)C(=O)N[C@@H](Cc1c[nH]c2ccccc12)C(=O)N[C@@H](CC(C)C)C(=O)N[C@@H](CC(C)C)C(=O)N[C@@H](CCCCNC(=O)CNC(=O)[C@H](CO)NC(=O)[C@H](CCC(=O)O)NC(=O)CNC(=O)[C@H](CO)NC(=O)CC[C@H](NC(=O)CC[C@H](NC(=O)CCCCCCCCCCCCCCCCC(=O)O)C(=O)O)C(=O)O)C(=O)N[C@H](C(N)=O)[C@@H](C)O)C(C)C` [Example 25, N^ε28-[2-[[(2S)-2-[[(2S)-4-carboxy-2-[[2-[[(2S)-2-[[(4S)-4-carboxy-4-[[(4S)-4-carboxy-4-(17-carboxyheptadecanoylamino)butanoyl]amino]butanoyl]amino]-3-hydroxypropanoyl]amino]acetyl]amino]butanoyl]amino]-3-hydroxypropanoyl]amino]acetyl]-[Aib2,Leu10,Glu15,Lys17,Arg20,Glu21,Leu27,Lys28]-Glucagon amide] (I: H-H[Aib]QGTFTSDLSKYLESKRAREFVQWLLKT-NH2 / II: {C18 diacid-γGlu-γGlu}-SGESG; amide I:28-II:C; N-terminus assumed), for which the THT assay Lag time (Ex. 76) is 45 h. Consider `CC(C)C[C@H](NC(=O)[C@H](CC(=O)O)NC(=O)[C@H](CC(C)C)NC(=O)[C@H](Cc1ccc(O)cc1)NC(=O)[C@H](CCCCN)NC(=O)[C@H](CO)NC(=O)[C@H](CC(C)C)NC(=O)[C@H](CC(=O)O)NC(=O)[C@H](CO)NC(=O)[C@@H](NC(=O)[C@H](Cc1ccccc1)NC(=O)[C@@H](NC(=O)CNC(=O)[C@H](CCC(N)=O)NC(=O)C(C)(C)NC(=O)[C@@H](N)Cc1c[nH]cn1)[C@@H](C)O)[C@@H](C)O)C(=O)N[C@@H](CCCCN)C(=O)N[C@@H](CCCNC(=N)N)C(=O)N[C@@H](C)C(=O)N[C@@H](CCCNC(=N)N)C(=O)N[C@@H](CCC(=O)O)C(=O)N[C@@H](Cc1ccccc1)C(=O)N[C@H](C(=O)N[C@@H](CCC(N)=O)C(=O)N[C@@H](Cc1c[nH]c2ccccc12)C(=O)N[C@@H](CC(C)C)C(=O)N[C@@H](CC(C)C)C(=O)N[C@@H](CCCCNC(=O)CC[C@H](NC(=O)CC[C@H](NC(=O)COCCOCCNC(=O)COCCOCCNC(=O)CC[C@H](NC(=O)CCCCCCCCCCCCCCCCC(=O)O)C(=O)O)C(=O)O)C(=O)O)C(=O)N[C@H](C(N)=O)[C@@H](C)O)C(C)C` [Example 26, N^ε28-[(4S)-4-carboxy-4-[[(4S)-4-carboxy-4-[[2-[2-[2-[[2-[2-[2-[[(4S)-4-carboxy-4-(17-carboxyheptadecanoylamino)butanoyl]amino]ethoxy]ethoxy]-acetyl]amino]ethoxy]ethoxy]acetyl]amino]butanoyl]amino]butanoyl]-[Aib2,Leu10,Leu16,Lys17,Arg20,Glu21, Leu27,Lys28]-Glucagon amide] (H-H[Aib]QGTFTSDLSKYLDLKRAREFVQWLLK([γGlu-γGlu-AEEA-AEEA-γGlu-C18 diacid])T-NH2), for which the THT assay Lag time (Ex. 76) came out at 45 h. For `CC(C)C[C@H](NC(=O)[C@H](Cc1ccc(O)cc1)NC(=O)[C@H](CCCCN)NC(=O)[C@H](CO)NC(=O)[C@H](CC(C)C)NC(=O)[C@H](CC(=O)O)NC(=O)[C@H](CO)NC(=O)[C@@H](NC(=O)[C@H](Cc1ccccc1)NC(=O)[C@@H](NC(=O)CNC(=O)[C@H](Cc1c[nH]cn1)NC(=O)C(C)(C)NC(=O)[C@@H](N)Cc1c[nH]cn1)[C@@H](C)O)[C@@H](C)O)C(=O)N[C@@H](CCC(=O)O)C(=O)N[C@@H](CO)C(=O)N[C@@H](CCCCN)C(=O)N[C@@H](CCCNC(=N)N)C(=O)N[C@@H](C)C(=O)N[C@@H](CCCNC(=N)N)C(=O)N[C@@H](CCC(=O)O)C(=O)N[C@@H](Cc1ccccc1)C(=O)N[C@H](C(=O)N[C@@H](CCC(N)=O)C(=O)N[C@@H](Cc1c[nH]c2ccccc12)C(=O)N[C@@H](CC(C)C)C(=O)N[C@@H](CC(C)C)C(=O)N[C@@H](CCCCNC(=O)CC[C@H](NC(=O)CC[C@H](NC(=O)COCCOCCNC(=O)COCCOCCNC(=O)CC[C@H](NC(=O)CCCCCCCCCCCCCCCCC(=O)O)C(=O)O)C(=O)O)C(=O)O)C(=O)N[C@H](C(N)=O)[C@@H](C)O)C(C)C` [Example 27, N^ε28-[(4S)-4-carboxy-4-[[(4S)-4-carboxy-4-[[2-[2-[2-[[2-[2-[2-[[(4S)-4-carboxy-4-(17-carboxyheptadecanoylamino)butanoyl]amino]ethoxy]ethoxy]acetyl]amino]ethoxy]ethoxy]acetyl]amino]butanoyl]amino]butanoyl]-[Aib2,His3,Leu10,Glu15,Lys17,Arg20,Glu21,Leu27, Lys28]-Glucagon amide] (H-H[Aib]HGTFTSDLSKYLESKRAREFVQWLLK([γGlu-γGlu-AEEA-AEEA-γGlu-C18 diacid])T-NH2; N-terminus assumed), the THT assay Lag time (Ex. 76) was 42 h.
